Among the data in BindingDB's records for doi:10.1021/acs.jmedchem.0c00656 (2020) are Kd values, retold here.

Broadly, the Kd is the equilibrium constant for the complex coming apart.

For this assay, the target named is T1, Vitamin D3 receptor A (Danio rerio, UniProt Q9PTN2).
T1 sequence (Q9PTN2 whole entry): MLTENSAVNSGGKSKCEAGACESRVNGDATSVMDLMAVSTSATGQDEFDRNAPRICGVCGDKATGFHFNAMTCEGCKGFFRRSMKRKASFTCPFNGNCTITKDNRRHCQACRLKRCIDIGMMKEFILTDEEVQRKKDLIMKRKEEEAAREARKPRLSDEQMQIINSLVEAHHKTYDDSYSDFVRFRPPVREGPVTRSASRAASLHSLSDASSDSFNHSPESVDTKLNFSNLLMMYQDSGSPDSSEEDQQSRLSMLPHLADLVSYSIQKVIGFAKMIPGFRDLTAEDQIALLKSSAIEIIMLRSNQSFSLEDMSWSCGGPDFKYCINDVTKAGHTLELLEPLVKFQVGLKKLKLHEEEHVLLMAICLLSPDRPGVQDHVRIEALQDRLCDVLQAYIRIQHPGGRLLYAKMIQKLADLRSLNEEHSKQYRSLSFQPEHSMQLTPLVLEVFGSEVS
The assay is described as follows: Binding affinity to zebrafish VDR LBD assessed as Kd for fluorescein-labeled SRC1 NR2 peptide binding by micro-scale thermophoresis method.

As to `C=C1/C(=C\C=C2/CCC[C@]3(C)[C@@H]([C@H](C)/C=C/[C@@H](O)C4(/C=C/C(=O)OCC)CC4)CC[C@@H]23)C[C@@H](O)C[C@@H]1O`, the Kd is above 30 µM.
